From ChEMBL document CHEMBL1158241, “Inhibition of hepatitis B surface antigen secretion on human hepatoma cells. Components from Rubia cordifolia” (J Nat Prod, 1996)
Values after ≈ are worked out from the molar mass of the structure shown. Active and inactive are the calls of the source. The calls are words filed in the database; no cut-off is given here.

How the values were obtained:
[1] = test system: Hepatitis B virus; test: Antiviral activity against Hepatitis B virus infected in human Hep3B cells assessed as suppression of viral surface antigen secretion after 48 hrs by enzyme immunoassay; type: functional, organism-based, Hep 3B2
[2] = Cytotoxicity against human Hep3B cells at >20 […] by MTT assay; type: cell-based; settings: hep 3b2
[3] = Cytotoxicity against human Hep3B cells by MTT assay; type: cell-based, Hep 3B2
[4] = test system: Hepatitis B virus; test: Antiviral activity against Hepatitis B virus infected in human Hep3B cells assessed as suppression of viral surface antigen secretion at >5 […] after 48 hrs by enzyme immunoassay; type: functional, organism-based; settings: Hep 3B2

SMILES | IC50 [1] [µg/mL] | Activity [2] | CC50 [3] [µg/mL] | Activity [4]
COc1c(C(=O)OCCC(C)C)c2c(c3ccccc13)OC(C)(C)C=C2 | 0.8 (≈ 2.26 µM) |  | 10 (≈ 28.2 µM) | 
COC(=O)c1c2c(c3ccccc3c1OC)OC(C)(C)CC2 [DIHYDROMOLLUGIN METHYL ETHER] |  |  | 7 (≈ 23.3 µM) | inactive
COC(=O)c1c2c(c3ccccc3c1O)OC(C)(C)CC2 [DIHYDROMOLLUGIN] | 2 (≈ 6.99 µM) |  | 8.2 (≈ 28.6 µM) | 
COC(=O)c1c(O)c2ccccc2c2occc12 [FUROMOLLUGIN] | 2 (≈ 8.26 µM) |  | 11.5 (≈ 47.5 µM) | 
COC(=O)c1c(OC)c2ccccc2c2occc12 [METHYLFUROMOLLUGIN] |  | Not Active |  | inactive
COC(=O)c1c(OC)c2ccccc2c2oc(=O)ccc12 [METHYLRUBILACTONE] |  |  | 12.5 (≈ 44 µM) | inactive
COC(=O)c1c2c(c3ccccc3c1OC)OC(C)(C)C=C2 [MOLLUGIN METHYL ETHER] |  | Not Active |  | inactive
COC(=O)c1c(O)c2ccccc2c2oc(=O)ccc12 [RUBILACTONE] |  |  | 4 (≈ 14.8 µM) | inactive

Further lines, with some results ahead:

IC50 [1] [µg/mL] | SMILES | Activity [2] | CC50 [3] [µg/mL] | Activity [4]
4.5 (≈ 15.8 µM) | COc1c(C(=O)O)c2c(c3ccccc13)OC(C)(C)C=C2 | Not Active |  | 
1 (≈ 2.67 µM) | COC(=O)c1c2c(c3ccccc3c1OCc1ccccc1)OC(C)(C)C=C2 | Not Active |  | 
2 (≈ 6.13 µM) | COC(=O)c1c2c(c3ccccc3c1OC(C)=O)OC(C)(C)C=C2 [ACETYLMOLLUGIN] |  | 10 (≈ 30.6 µM) | 
2 (≈ 7.03 µM) | COC(=O)c1c2c(c3ccccc3c1O)OC(C)(C)C=C2 [MOLLUGIN] | Not Active |  | 
